Values quoted from earlier work, collected in patent publication US12349704B2, “High quality cultured meat, compositions and methods for producing same” (ALEPH FARMS LTD., priority 2018, dated 2025).
One block for each compound: values may come before it.

Assays:
[1] = dietary or formulated lycopene
[2] = not given; remark: listed apart in the source

SMILES: CC(C)=CCC/C(C)=C/C=C/C(C)=C/C=C/C(C)=C/C=C/C=C(C)/C=C/C=C(C)/C=C/C=C(\C)CCC=C(C)C [lycopene]
- intake levels at which no adverse effects were observed [1]: up to 3 g/(kg*d)

- daily intake that may lead to hypercarotenemia (yellowish coloration of the skin, harmless and reversible): > 30 mg
SMILES: CC1=C(/C=C/C(C)=C/C=C/C(C)=C/C=C/C=C(C)/C=C/C=C(C)/C=C/C2=C(C)CCCC2(C)C)C(C)(C)CCC1 [beta-carotene]

SMILES: NCC(=O)[O-].NCC(=O)[O-].[Fe+2] [Ferrous bisglycinate]
- tolerability of dietary iron supplementation ([2]; approximately 15 to 120 mg iron/day, iron-deficient young children, adult males, pregnant and non-pregnant females): well tolerated
- adverse effects in field trials of iron fortification of foods ([2]; between 2 and 23 mg/day of supplemental dietary iron): without any reports of adverse effects
